Assay results reported in the Kinase Knowledgebase extract (Sharma et al. 2016).

molecular target: EGFR (human) (UniProt P00533)
Sequence (P00533 whole entry, looked up): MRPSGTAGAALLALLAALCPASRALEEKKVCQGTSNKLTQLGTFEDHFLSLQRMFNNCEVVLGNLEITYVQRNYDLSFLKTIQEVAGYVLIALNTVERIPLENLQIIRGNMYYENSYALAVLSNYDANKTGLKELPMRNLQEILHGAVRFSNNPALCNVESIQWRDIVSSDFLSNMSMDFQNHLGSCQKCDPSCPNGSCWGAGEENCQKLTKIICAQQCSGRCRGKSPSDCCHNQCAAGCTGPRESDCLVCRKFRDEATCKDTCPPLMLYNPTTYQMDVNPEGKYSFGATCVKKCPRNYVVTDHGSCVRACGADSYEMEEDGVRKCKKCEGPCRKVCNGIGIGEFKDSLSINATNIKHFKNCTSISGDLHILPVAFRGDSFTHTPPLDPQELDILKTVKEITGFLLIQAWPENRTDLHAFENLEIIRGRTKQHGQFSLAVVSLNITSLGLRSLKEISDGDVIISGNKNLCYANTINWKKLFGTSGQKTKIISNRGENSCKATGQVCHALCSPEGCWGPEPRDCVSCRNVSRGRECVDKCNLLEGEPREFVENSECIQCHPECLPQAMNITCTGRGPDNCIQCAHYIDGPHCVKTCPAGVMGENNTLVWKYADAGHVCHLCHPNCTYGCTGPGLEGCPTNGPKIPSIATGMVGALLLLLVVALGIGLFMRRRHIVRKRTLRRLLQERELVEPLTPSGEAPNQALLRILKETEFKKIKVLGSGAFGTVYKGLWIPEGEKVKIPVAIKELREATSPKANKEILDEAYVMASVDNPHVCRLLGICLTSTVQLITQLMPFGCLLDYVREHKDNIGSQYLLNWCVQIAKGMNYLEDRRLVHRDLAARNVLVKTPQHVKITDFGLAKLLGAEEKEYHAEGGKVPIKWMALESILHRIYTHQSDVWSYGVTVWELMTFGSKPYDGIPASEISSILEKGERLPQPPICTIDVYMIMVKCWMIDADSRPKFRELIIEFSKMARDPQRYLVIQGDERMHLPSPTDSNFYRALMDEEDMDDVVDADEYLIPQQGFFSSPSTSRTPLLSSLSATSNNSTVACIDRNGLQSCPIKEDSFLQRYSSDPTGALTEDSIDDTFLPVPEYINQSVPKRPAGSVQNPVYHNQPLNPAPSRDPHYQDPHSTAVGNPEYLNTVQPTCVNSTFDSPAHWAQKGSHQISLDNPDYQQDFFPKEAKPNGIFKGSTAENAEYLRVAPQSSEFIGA

IC50, < 100 nM:
CN(C)c1nc(-c2cccc(NC(=O)c3c(F)cccc3F)c2)c(-c2ccnc(Nc3ccc(N4CCOCC4)c(Cl)c3)n2)s1
Nc1nc(-c2cccc(NC(=O)c3c(F)cccc3F)c2)c(-c2ccnc(Nc3cccc(F)c3)n2)s1
O=C(Nc1cccc(-c2nc(CF)sc2-c2ccnc(Nc3ccc(OCCN4CCCC4)c(F)c3)n2)c1)c1c(F)cccc1F
CN(C)CCOc1ccc(Nc2nccc(-c3sc(N)nc3-c3cccc(OCc4ccccc4)c3)n2)cc1Cl
COc1ccc(Nc2nccc(-c3sc(N)nc3-c3cccc(NC(=O)c4c(F)cccc4F)c3)n2)cc1N(C)C
CN1CCC(c2nc(-c3cccc(NC(=O)c4c(F)cccc4F)c3)c(-c3ccnc(Nc4ccc5c(c4)CN(C)CC5)n3)s2)CC1
Cc1nc(-c2cccc(NC(=O)c3c(F)cccc3F)c2)c(-c2ccnc(Nc3ccc(OCCN(C)C)c(Cl)c3)n2)s1
CN(C)CCOc1ccc(Nc2nccc(-c3sc(-c4ccc(O)cc4)nc3-c3cccc(NC(=O)c4c(F)cccc4F)c3)n2)cc1Cl
Nc1nc(-c2cccc(NC(=O)c3c(F)cccc3F)c2)c(-c2ccnc(Nc3cccc(CCS(N)(=O)=O)c3)n2)s1
CN(C)c1nc(-c2cccc(NC(=O)c3c(F)cccc3F)c2)c(-c2ccnc(Nc3ccc(OCCN4CCCC4)c(Cl)c3)n2)s1
CN(C)CCOc1ccc(Nc2nccc(-c3sc(N(C)C)nc3-c3cccc(NC(=O)c4c(F)cccc4F)c3)n2)cc1
CN(C)CCOc1cccc(Nc2nccc(-c3scnc3-c3cccc(NC(=O)Cc4cccs4)c3)n2)c1
O=C(Nc1cccc(-c2nc(NCCN3CCOCC3)sc2-c2ccnc(Nc3ccc4c(c3)CNCC4)n2)c1)c1c(F)cccc1F
Nc1nc(-c2cccc(NC(=O)C3CCCCC3)c2)c(-c2ccnc(Nc3ccc4c(c3)CNCC4)n2)s1
Cc1nc(-c2cccc(NC(=O)c3c(F)cccc3F)c2)c(-c2ccnc(Nc3cccc(F)c3)n2)s1
CC(C)(C)S(=O)(=O)Cc1nc(-c2cccc(NC(=O)c3c(F)cccc3F)c2)c(-c2ccnc(Nc3ccc(OCCN4CCCC4)c(Cl)c3)n2)s1
CN(C)CCOc1cccc(Nc2nccc(-c3sc(N)nc3-c3cccc(C(=O)Nc4c(F)cccc4F)c3)n2)c1
COc1ccc(Nc2nccc(-c3sc(N)nc3-c3cccc(NC(=O)c4c(F)cccc4F)c3)n2)cc1N1CCN(C)CC1
O=C(Nc1cccc(-c2nc(N3CCCCC3)sc2-c2ccnc(Nc3cccc(CN4CCCC4)c3)n2)c1)c1c(F)cccc1F
CN1CCc2ccc(Nc3nccc(-c4sc(CS(=O)(=O)C(C)(C)C)nc4-c4cccc(NC(=O)c5c(F)cccc5F)c4)n3)cc2C1
CS(=O)(=O)CCN1CCN(c2ccc(Nc3nccc(-c4scnc4-c4cccc(NC(=O)c5c(F)cccc5F)c4)n3)cc2F)CC1
CCNc1nc(-c2cccc(NC(=O)C3CC3)c2)c(-c2ccnc(Nc3ccc(OCCN4CCCC4)c(Cl)c3)n2)s1
Nc1nc(-c2cccc(NC(=O)c3cc(F)ccc3F)c2)c(-c2ccnc(Nc3cccc(-c4cnco4)c3)n2)s1
COCCOc1ccc(Nc2nccc(-c3sc(N)nc3-c3cccc(NC(=O)c4c(F)cccc4F)c3)n2)cc1F
O=C(Cc1cccs1)Nc1cccc(-c2ncsc2-c2ccnc(Nc3ccc4c(c3)OCC(=O)N4)n2)c1
COc1ccc(Nc2nccc(-c3scnc3-c3cccc(NC(=O)c4c(F)cccc4F)c3)n2)cc1N1CCN(C)CC1
CN(C)CCOc1ccc(Nc2nccc(-c3sc(N4CCCCC4)nc3-c3cccc(NC(=O)c4c(F)cccc4F)c3)n2)cc1Cl
Nc1nc(-c2cccc(NC(=O)c3c(F)cccc3F)c2)c(-c2ccnc(Nc3cccc(-c4cnco4)c3)n2)s1
Cc1nc(-c2cccc(NC(=O)c3cc(F)ccc3F)c2)c(-c2ccnc(Nc3ccc(OCCN(C)C)c(Cl)c3)n2)o1
CN(C)CCOc1cccc(Nc2nccc(-c3sc(N4CCCCC4)nc3-c3cccc(NC(=O)c4c(F)cccc4F)c3)n2)c1
CNc1nc(-c2cccc(NC(=O)c3c(F)cccc3F)c2)c(-c2ccnc(Nc3ccc(OCCN(C)C)c(Cl)c3)n2)s1
COCCOc1ccc(Nc2nccc(-c3sc(N)nc3-c3cccc(NC(=O)c4cc(F)ccc4F)c3)n2)cc1F
CCN(CC)CCOc1cccc(Nc2nccc(-c3scnc3-c3cccc(NC(=O)c4c(F)cccc4F)c3)n2)c1
CN(C)CCOc1cccc(Nc2nccc(-c3sc(NCCCN4CCOCC4)nc3-c3cccc(NC(=O)c4c(F)cccc4F)c3)n2)c1
O=C(Nc1cccc(-c2nc(N3CCC3)sc2-c2ccnc(Nc3ccc(OCCN4CCCC4)c(Cl)c3)n2)c1)c1c(F)cccc1F
COc1ccc(Nc2nccc(-c3sc(NC4CC4)nc3-c3cccc(NC(=O)c4c(F)cccc4F)c3)n2)cc1OCCN(C)C
Cc1nc(-c2cccc(NC(=O)c3ccc(F)cc3)c2)c(-c2ccnc(Nc3ccc(OCCN(C)C)c(Cl)c3)n2)s1
Nc1nc(-c2cccc(OCc3ccccc3)c2)c(-c2ccnc(Nc3ccc4c(c3)CNCC4)n2)s1
CN(C)Cc1cccc(Nc2nccc(-c3scnc3-c3cccc(NC(=O)Cc4cccs4)c3)n2)c1
CN(C)CCOc1cccc(Nc2nccc(-c3sc(N)nc3-c3cccc(NC(=O)c4c(F)cccc4F)c3)n2)c1
CNc1nc(-c2cccc(NC(=O)c3c(F)cccc3F)c2)c(-c2ccnc(Nc3cccc(CN4CCCC4)c3)n2)s1
COCCOc1ccc(Nc2nccc(-c3sc(N)nc3-c3cccc(NC(=O)c4cccn4C)c3)n2)cc1F
CN(C)CCOc1ccc(Nc2nccc(-c3sc(NCCCN4CCOCC4)nc3-c3cccc(NC(=O)c4c(F)cccc4F)c3)n2)cc1Cl
CN(C)CCCNc1ccc(Nc2nccc(-c3sc(N)nc3-c3cccc(NC(=O)c4cc(F)ccc4F)c3)n2)cc1F
Nc1nc(-c2cccc(NC(=O)c3c(F)cccc3F)c2)c(-c2ccnc(Nc3ccc4c(c3)NC(=O)CO4)n2)s1
Cc1nc(-c2cccc(NC(=O)c3c(F)cccc3F)c2)c(-c2ccnc(Nc3ccc(OC4CCNCC4)c(F)c3)n2)s1
CCNc1nc(-c2cccc(NC(=O)c3c(F)cccc3F)c2)c(-c2ccnc(Nc3ccc(OCCN(C)C)c(Cl)c3)n2)s1
CN1CCc2ccc(Nc3nccc(-c4sc(N)nc4-c4cccc(NC(=O)c5c(F)cccc5F)c4)n3)cc2C1
O=C(Nc1cccc(-c2nc(NCCCN3CCOCC3)sc2-c2ccnc(Nc3cccc(F)c3)n2)c1)c1c(F)cccc1F
COCCNc1nc(-c2cccc(NC(=O)c3c(F)cccc3F)c2)c(-c2ccnc(Nc3ccc(OCCN4CCCC4)c(Cl)c3)n2)s1
CN(C)CCOc1ccc(Nc2nccc(-c3scnc3-c3cccc(NC(=O)c4c(F)cccc4F)c3)n2)cc1Cl
CS(=O)(=O)Cc1ccc(Nc2nccc(-c3sc(N)nc3-c3cccc(NC(=O)c4c(F)cccc4F)c3)n2)cc1
CCc1nc(-c2cccc(NC(=O)c3c(F)cccc3F)c2)c(-c2ccnc(Nc3ccc(OCCN(C)C)c(Cl)c3)n2)s1
CN(C)CCOc1ccc(Nc2nccc(-c3sc(NS(=O)(=O)CC(F)(F)F)nc3-c3cccc(NC(=O)c4c(F)cccc4F)c3)n2)cc1
